In ChEMBL document CHEMBL1158893, “New icetexane and 20 norabietane diterpenes with trypanocidal activity from Dracocephalum komarovi” (2003) one finds MLC data, which are given here for 4 compounds.

Values after ≈ are worked out from the molar mass of the structure shown.

The test system of the experiment is Trypanosoma cruzi. The experiment can be described thus: Trypanocidal activity against Trypanosoma cruzi epimastigotes. The experiment is classed as functional.
`CC(C)c1c(O)c2c(c3c1OCO3)C[C@@]1(O)CCCC(C)(C)[C@@H]1CC2=O` [CYCLOCOULTERONE]: the MLC stood at 20 µM (≈ 7.21 µg/mL). The value for `COc1c(O)c2c(c(O)c1C(C)C)C(=O)C[C@H]1[C@]3(C)CCC[C@]21OC3` [DRACOCEPHALONE A] was 200 µM (≈ 69.3 µg/mL); that for `CN(C)c1ccc(C(=C2C=CC(=[N+](C)C)C=C2)c2ccc(N(C)C)cc2)cc1.[Cl-]` [GENTIAN VIOLET] was 6.3 µM; that for `COC1=C(C(C)C)C(=O)C2=C(C[C@@]34CCCC(C)(C)[C@@H]3C[C@]2(O)O4)C1=O` [KOMAROVIQUINONE] was 0.4 µM (≈ 0.144 µg/mL).
